Patent publication US20130053305A1, “PEPTIDE COMPOUNDS THAT CAN BE USED AS ANTIBACTERIAL AGENTS” (UNIVERSIDAD DE BARCELONA, priority 2010, published 2013)
Like-named read-outs stand apart in the source and are kept apart here. Positions of bridges follow the written chain, without caps; N, C: chain ends. Non-standard residues stand in square brackets, D forms with d. Residues, ends and D or L forms follow the SMILES beside them. *: point of attachment. Nonanoyl = CCCCCCCCC(=O)*; X1 = CC[C@H](C)CCCCC(=O)*; Dab = NCC[C@H](N)C(=O)O

Experiments:
[1] = test system: Staphylococcus aureus ATCC 6538; assay type: cell-based
Description: (§1) The antibacterial activity of the lipopeptides was measured in sterile 96-well plates (Corning Costar 3598 microtiter plates). Samples of a final volume of 200 μL were prepared as follows: aliquots (100 μL) of a suspension containing bacteria at a concentration of 10^5 colony-forming units/mL in culture medium (MH, Muller Hinton Broth, Difco, USA), adjusted at pH 7.4, were added to 100 μL of solution containing the peptide prepared from a stock solution of 1 mg/mL peptide in water in serial 2-fold dilutions in MH broth adjusted to pH 7.4 (Jorgensen and Turnide, 2003).
(§2) Inhibition of bacterial growth was determined by measuring the absorbance at 492 nm with a Absorbance Microplate reader ELx 800 (Bio-tek Instruments) after an incubation of 24-48 h at 37° C. Antibacterial activities are expressed as the MIC, the concentration at which no growth is observed after 24-48 h of incubation.
(§3) Microorganisms were cultured on Tryptycase Soy Broth (Pronadisa, Barcelona) and incubated at 37° C. until bacterial growth was observed. Then a loopful was streaked on Trypticase Soy Agar (Pronadisa, Barcelona) and incubated at 37° C. until colony formation occurred. Microorganisms were preserved on cryobilles (EAS laboratoire, France) at −20° C.
(§4) Bacterial strains used for the antibacterial activity tests were obtained from the American Type Culture Collection (ATCC, Rockville, Md., USA): […]

[2] = test system: Mycobacterium phlei ATCC 41423; assay type: cell-based
Description: as §1, §2, §3, §4

[3] = test system: Escherichia coli ATCC 8739; assay type: cell-based
Description: as §1, §2, §3
(§5) Bacterial strains used for the antibacterial activity tests were obtained from the American Type Culture Collection (ATCC, Rockville, Md., USA):
(§6) Escherichia coli ATCC 8739 Pseudomonas aeruginosa ATCC 9027 Salmonella typhimurium ATCC 14028

[4] = test system: Salmonella typhimurium ATCC 14028; assay type: cell-based
Description: as §1, §2, §3, §5, §6

[5] = test system: Pseudomonas aeruginosa ATCC 9027; assay type: cell-based
Description: as §1, §2, §3, §5, §6

[6] = test system: Microccous luteus ATCC 9341; assay type: cell-based, Micrococcus luteus
Description: as §1, §2, §3, §4

[7] = test system: Acinetobacter sp ATCC 5798; assay type: cell-based
Description: as §1, §2, §3, §5
Acinetobacter sp ATCC 5798

Gram positive bacteria = test: Antibacterial test, summary for Gram positive bacteria; assay type: cell-based; details: summary in words
Description: as §1, §2, §3, §4

[8] = MH broth pH 7.4, 24-48 h at 37° C.
[9] = Table 1 values displayed in micromolar units
[10] = Table 2 values displayed in micromolar units

| MIC Staphylococcus aureus ([1]; ATCC 6538) [µM] | MIC Staphylococcus aureus [1, 8] [µg/mL] | MIC Micobacterium phlei ([2]; ATCC 41423) [µM] | MIC Micobacterium phlei ([2]; ATCC 41423, pH 7.4) [µg/mL] | MIC Escherichia coli 8739 ([3]; ATCC 8739) [µM] | MIC Escherichia coli 8739 [3, 8] [µg/mL] | MIC Salmonella typhimurium 14028 ([4]; ATCC 14028) [µM] | MIC Salmonella typhimurium 14028 ([4]; ATCC 14028, pH 7.4) [µg/mL] | MIC Pseudomonas aeruginosa 9027 ([5]; ATCC 9027) [µM] | MIC Pseudomonas aeruginosa 9027 [5, 8] [µg/mL] | MIC Micrococcus luteus ([6]; ATCC 9341) [µM] | MIC Micrococcus luteus [6, 8] [µg/mL] | MIC Acinetobacter sp ATCC 5798 ([7]; ATCC 5798) [µM] | MIC Acinetobacter sp ATCC 5798 [7, 8] [µg/mL] | MIC Salmonella typhimurium 14028 [4, 8] [µg/mL] | MIC Pseudomonas aeruginosa 9027 ([5]; ATCC 9027, pH 7.4) [µg/mL] | Structure (SMILES) | MIC Micobacterium phlei [2, 8] [µg/mL] | other results |
| --- | --- | --- | --- | --- | --- | --- | --- | --- | --- | --- | --- | --- | --- | --- | --- | --- | --- | --- |
| 24.32 | 32 | 6.08 to 12.16 | 8 to 16 | 3.04 | 4 | 6.08 to 12.16 | 8 to 16 | 3.04 | 4 | 12.16 | 16 | 6.08 | 8 | – | – | CCCCCCCCC(=O)N[C@@H](CCCNC(=N)N)C(=O)N[C@H](C(=O)N[C@@H](CCN)C(=O)N[C@H]1CCNC(=O)[C@H]([C@@H](C)O)NC(=O)[C@H](CCN)NC(=O)[C@H](CCCNC(=N)N)NC(=O)[C@H](CC(C)C)NC(=O)[C@@H](Cc2ccccc2)NC(=O)[C@H](CCN)NC1=O)[C@@H](C)O [(Ia1), nonanoyl-Arg-Thr-Dab-cyclo(4-10)[Dab-Dab-DPhe-Leu-Arg-Dab-Thr]] (Nonanoyl-RT[Dab][Dab][Dab][dF]LR[Dab]T; lactam 4-C) | – | – |
| 6.06 | 16 | 6.06 | – | 6.06 | 16 | 6.06 | – | >12.12 | – | 3.03 to 6.06 | – | 1.51 | 4 | 16 | >32 | CCCCCCCCC(=O)N[C@@H](CCCNC(=N)N)C(=O)N[C@H](C(=O)N[C@@H](CCN)C(=O)N[C@H]1CSSC[C@@H](C(=O)NCC(=O)N[C@@H](CCCNC(=N)N)C(=O)N[C@H](C(=O)N[C@@H](CCC(=O)O)C(=O)N[C@H](C(=O)N[C@@H](CC(C)C)C(=O)N[C@@H](Cc2ccc(O)cc2)C(=O)N[C@@H](CCCNC(=N)N)C(=O)NCC(=O)N[C@@H](CO)C(=O)N[C@@H](Cc2c[nH]c3ccccc23)C(N)=O)C(C)C)C(C)C)NC(=O)[C@H](CCN)NC(=O)[C@H](CCCNC(=N)N)NC(=O)[C@H](CC(C)C)NC(=O)[C@@H](Cc2ccccc2)NC(=O)[C@H](CCN)NC1=O)[C@@H](C)O [(Ib3)] (Nonanoyl-RT[Dab]C[Dab][dF]LR[Dab]CGRVEVLYRGSW-NH2; disulfide 4-10) | 16 | MIC Micrococcus luteus ([6]; ATCC 9341, pH 7.4): 8 to 16 µg/mL |
| 7.28 | 16 | >14.56 | >32 | >14.56 | – | >14.56 | >32 | >14.56 | – | 3.64 | 8 | 3.64 to 7.28 | – | – | >32 | CCCCCCCCC(=O)N[C@@H](CCCNC(=N)N)C(=O)N[C@H](C(=O)N[C@@H](CCN)C(=O)N[C@H]1CSSC[C@@H](C(=O)N[C@@H](CC(C)C)C(=O)N[C@@H](CCSC)C(=O)N[C@@H](Cc2c[nH]c3ccccc23)C(=O)N[C@@H](Cc2c[nH]c3ccccc23)C(=O)N[C@@H](CCSC)C(=O)N[C@@H](CC(C)C)C(N)=O)NC(=O)[C@H](CCN)NC(=O)[C@H](CCCNC(=N)N)NC(=O)[C@H](CC(C)C)NC(=O)[C@@H](Cc2ccccc2)NC(=O)[C@H](CCN)NC1=O)[C@@H](C)O [(Ib6), nonanoyl-Arg-Thr-Dab-cyclo(S—S)[Cys-Dab-DPhe-Leu-Arg-Dab-Cys]-Leu-Met-Trp-Trp-Met-Leu] (Nonanoyl-RT[Dab]C[Dab][dF]LR[Dab]CLMWWML-NH2; disulfide 4-10) | – | MIC Escherichia coli 8739 ([3]; ATCC 8739, pH 7.4): >32 µg/mL; MIC Acinetobacter sp ATCC 5798 ([7]; ATCC 5798, pH 7.4): 8 to 16 µg/mL |
| 11.98 | 16 | 5.99 to 11.98 | 8 to 16 | 5.99 | 8 | 11.98 | – | 2.99 | 4 | 5.99 | 8 | 11.98 | 16 | 16 | – | CCCCCCCCC(=O)N[C@@H](CCCNC(=N)N)C(=O)N[C@H](C(=O)N[C@@H](CCN)C(=O)N[C@H]1CSSC[C@H](C(N)=O)NC(=O)[C@H](CCN)NC(=O)[C@H](CCCNC(=N)N)NC(=O)[C@H](CC(C)C)NC(=O)[C@@H](Cc2ccccc2)NC(=O)[C@H](CCN)NC1=O)[C@@H](C)O [(Ib13), nonanoyl-Arg-Thr-Dab-cyclo(S—S)[Cys-Dab-DPhe-Leu-Arg-Dab-DCys]] (Nonanoyl-RT[Dab]C[Dab][dF]LR[Dab][dC]-NH2; disulfide 4-10) | – | – |

| Structure (SMILES) | MIC Staphylococcus aureus ([1]; ATCC 6538) [µM] | MIC Staphylococcus aureus [1, 8] [µg/mL] | MIC Micobacterium phlei ([2]; ATCC 41423) [µM] | MIC Micobacterium phlei ([2]; ATCC 41423, pH 7.4) [µg/mL] | MIC Escherichia coli 8739 ([3]; ATCC 8739) [µM] | MIC Escherichia coli 8739 [3, 8] [µg/mL] | MIC Salmonella typhimurium 14028 ([4]; ATCC 14028) [µM] | MIC Salmonella typhimurium 14028 ([4]; ATCC 14028, pH 7.4) [µg/mL] | MIC Pseudomonas aeruginosa 9027 ([5]; ATCC 9027) [µM] | MIC Pseudomonas aeruginosa 9027 [5, 8] [µg/mL] | MIC Micrococcus luteus ([6]; ATCC 9341) [µM] | MIC Micrococcus luteus [6, 8] [µg/mL] | MIC Acinetobacter sp ATCC 5798 ([7]; ATCC 5798) [µM] | MIC Acinetobacter sp ATCC 5798 [7, 8] [µg/mL] | MIC Salmonella typhimurium 14028 [4, 8] [µg/mL] | MIC Pseudomonas aeruginosa 9027 ([5]; ATCC 9027, pH 7.4) [µg/mL] | MIC Micobacterium phlei [2, 8] [µg/mL] | other results |
| --- | --- | --- | --- | --- | --- | --- | --- | --- | --- | --- | --- | --- | --- | --- | --- | --- | --- | --- |
| CC[C@H](C)CCCCC(=O)N[C@@H](CCN)C(=O)N[C@H](C(=O)N[C@@H](CCN)C(=O)N[C@H]1CCNC(=O)[C@H]([C@@H](C)O)NC(=O)[C@H](CCN)NC(=O)[C@H](CCN)NC(=O)[C@H](CC(C)C)NC(=O)[C@@H](Cc2ccccc2)NC(=O)[C@H](CCN)NC1=O)[C@@H](C)O [PxB, (S)-6-methyloctanoyl-Dab-Thr-Dab-cyclo(4-10)[Dab-Dab-DPhe-Leu-Dab-Dab-Thr], reference compound] (X1-[Dab]T[Dab][Dab][Dab][dF]L[Dab][Dab]T; lactam 4-C) | – | >32 | – | – | – | 1 to 2 | – | – | – | 2 | – | 32 | – | 0.5 | 1 | – | 32 | MIC Staphylococcus aureus [1, 9]: >26.90 µM; MIC Micobacterium phlei [2, 9]: 26.90 µM; MIC Escherichia coli 8739 [3, 10]: 0.84 to 1.68 µM; MIC Salmonella typhimurium 14028 [4, 10]: 0.84 µM; MIC Pseudomonas aeruginosa 9027 [5, 10]: 1.68 µM; MIC Micrococcus luteus [6, 9]: 26.90 µM; MIC Acinetobacter sp ATCC 5798 [7, 10]: 0.42 µM; antibacterial activity in Gram positive bacteria (Gram positive bacteria): does not show activity against Gram positive bacteria |
